Drawing on US12357630B2, “Ceritinib formulation” (Novartis AG, priority 2014, dated 2025), this text covers solubility and permeability for one molecule.

In brackets after ≈: the same amount, converted by molar mass.

A word on the solubility: it is the concentration that dissolves in the medium under given conditions.

One data set is described as follows: Solubility in water. It is filed as physicochemical. The settings on record: 25° C. As for the experimental part: (§1) Ceritinib is a difficult compound to formulate. […] In addition, physical characteristics of Ceritinib cause sticking and picking during tableting or encapsulation of the drug and make it poorly compressible. Furthermore, the drug is administered at a high dose of 750 mg, which would require a patient to take daily up to 5 units of 150 mg. If the dose is to be increased in a respective dosage form, the increase in drug load generally negatively affects the compressibility of a tablet. Ceritinib's sticky nature causes a high drug load to further negatively influence the manufacturing of tablets due to enhanced sticking/picking.

Data set [1] can be described thus: Permeability / Biopharmaceutics Classification System. Type of data set: in vitro ADME. As for the experimental part:
as §1

Take `Cc1cc(Nc2ncc(Cl)c(Nc3ccccc3S(=O)(=O)C(C)C)n2)c(OC(C)C)cc1C1CCNCC1` [Ceritinib, 5-chloro-N^2-(2-isopropoxy-5-methyl-4-(piperidin-4-yl)phenyl)-N^4-[2-(propane-2-sulfonyl)-phenyl]-pyrimidine-2,4-diamine]: the solubility in the data set “Solubility in water” was found to be 20 µg/mL (≈ 35.8 µM). The permeability result in data set [1] is “low permeability”.
